Measured values as given in patent publication USRE38117E1, “Trioxane dimer compound having antiproliferative and antitumor activities” (Hauser, Inc., priority 1995, dated 2003).

What was measured:
Format in all cases: cell-based
[1] = system: CCRF-CEM; test: NCI 60 cell line screen (SRB), Leukemia
[2] = system: K-562; test: NCI 60 cell line screen (SRB), Leukemia; details: K-562 (Leukemia)
[3] = system: MOLT-4; test: NCI 60 cell line screen (SRB), Leukemia
[4] = system: EKVX; test: NCI 60 cell line screen (SRB), Non-Small Cell Lung Cancer
[5] = system: HOP-62; test: as above; details: HOP-62 (Non-Small Cell Lung Cancer)
[6] = system: HOP-92; test: as above; details: HOP-92 (Non-Small Cell Lung Cancer)
[7] = system: NCI-H23; test: as above
[8] = system: NCI-H460; test: as above
[9] = system: HCC-2998; test: NCI 60 cell line screen (SRB), Colon Cancer; details: HCC-2998 (Colon Cancer)
[10] = system: HCT-116; test: NCI 60 cell line screen (SRB), Colon Cancer; details: HCT-116 (Colon Cancer)
[11] = system: HCT-15; test: NCI 60 cell line screen (SRB), Colon Cancer; details: HCT-15 (Colon Cancer)
[12] = system: SF-295; test: NCI 60 cell line screen (SRB), CNS Cancer; details: SF-295 (CNS Cancer)
[13] = system: SF-539; test: NCI 60 cell line screen (SRB), CNS Cancer; details: SF-539 (CNS Cancer)
[14] = system: SNB-75; test: NCI 60 cell line screen (SRB), CNS Cancer; details: SNB-75 (CNS Cancer)
[15] = system: U251; test: NCI 60 cell line screen (SRB), CNS Cancer
[16] = system: MALME-3M; test: NCI 60 cell line screen (SRB), Melanoma; details: MALME-3M (Melanoma)
[17] = system: SK-MEL-28; test: NCI 60 cell line screen (SRB), Melanoma; details: SK-MEL-28 (Melanoma)
[18] = system: SK-MEL-5; test: NCI 60 cell line screen (SRB), Melanoma; details: SK-MEL-5 (Melanoma)
[19] = system: UACC-257; test: NCI 60 cell line screen (SRB), Melanoma; details: UACC-257 (Melanoma)
[20] = system: UACC-62; test: NCI 60 cell line screen (SRB), Melanoma; details: UACC-62 (Melanoma)
[21] = system: OVCAR-3; test: NCI 60 cell line screen (SRB), Ovarian Cancer; details: OVCAR-3 (Ovarian Cancer)
[22] = system: OVCAR-4; test: NCI 60 cell line screen (SRB), Ovarian Cancer; details: OVCAR-4 (Ovarian Cancer)
[23] = system: 786-0; test: NCI 60 cell line screen (SRB), Renal Cancer; details: 786-0 (Renal Cancer)
[24] = system: A498; test: NCI 60 cell line screen (SRB), Renal Cancer
[25] = system: ACHN; test: NCI 60 cell line screen (SRB), Renal Cancer
[26] = system: CAKI-1; test: NCI 60 cell line screen (SRB), Renal Cancer; details: CAKI-1 (Renal Cancer)
[27] = system: RXF 393; test: NCI 60 cell line screen (SRB), Renal Cancer; details: RXF 393 (Renal Cancer)
[28] = system: SN12C; test: NCI 60 cell line screen (SRB), Renal Cancer
[29] = system: TK-10; test: NCI 60 cell line screen (SRB), Renal Cancer; details: TK-10 (Renal Cancer)
[30] = system: MCF7/ADR-RES; test: NCI 60 cell line screen (SRB), Breast Cancer
[31] = system: MDA-MB231/ATCC; test: NCI 60 cell line screen (SRB), Breast Cancer
[32] = system: HS 578T; test: NCI 60 cell line screen (SRB), Breast Cancer; details: HS 578T (Breast Cancer)
[33] = system: MDA-N; test: NCI 60 cell line screen (SRB), Breast Cancer
[34] = MOLT-4 (Leukemia), listed as Metaphtalate Dimer
[35] = MOLT-4 (Leukemia), listed as metaphthalate dimer

COC1OC2(C)CCC3CCCC(CCOC(=O)c4cccc(C(=O)OCCC5CCCC6CCC7(C)OOC56C(OC)O7)c4)C31OO2 (stereo not drawn) [Compound 10, Trioxane Bis-ester Dimer]
Log10GI50 [1]: −7.15 M | Log10LC50 [1]: >−4.30 M | Log10TGI [1]: −5.70 M | Log10GI50 [2]: −6.79 M | Log10LC50 [2]: >−4.30 M | Log10TGI [2]: −5.35 M | Log10GI50 ([3]; MOLT-4 (Leukemia)): −7.68 M | Log10LC50 [3, 34]: >−4.30 M | Log10TGI [3, 34]: −6.53 M | Log10LC50 [3, 35]: −4.05 M | Log10TGI [3, 35]: −5.80 M | drug concentration necessary to achieve primary growth inhibition (percentage growth +50) ([3]; MOLT-4, read from dose response curves FIGS. 10a-10e): less than 10^−7 molar | Log10GI50 [4]: −5.31 M | Log10LC50 [4]: >−4.30 M | Log10TGI [4]: >−4.30 M | Log10GI50 [5]: −5.11 M | Log10LC50 [5]: >−4.30 M | Log10TGI [5]: >−4.30 M | Log10GI50 [6]: −6.01 M | Log10LC50 [6]: >−4.30 M | Log10TGI [6]: −4.64 M | Log10GI50 [7]: −6.29 M | Log10LC50 [7]: >−4.30 M | Log10TGI [7]: >−4.30 M | Log10GI50 [8]: −5.76 M | Log10LC50 [8]: >−4.30 M | Log10TGI [8]: >−4.30 M | Log10GI50 [9]: −5.32 M | Log10LC50 [9]: >−4.30 M | Log10TGI [9]: >−4.30 M | Log10GI50 [10]: −6.43 M | Log10LC50 [10]: >−4.30 M | Log10TGI [10]: >−4.30 M | Log10GI50 [11]: −6.14 M | Log10LC50 [11]: >−4.30 M | Log10TGI [11]: >−4.30 M | Log10GI50 [12]: −5.01 M | Log10LC50 [12]: >−4.30 M | Log10TGI [12]: >−4.30 M | Log10GI50 [13]: −6.11 M | Log10LC50 [13]: >−4.30 M | Log10TGI [13]: >−4.30 M | Log10GI50 [14]: −5.56 M | Log10LC50 [14]: >−4.30 M | Log10TGI [14]: >−4.30 M | Log10GI50 [15]: −6.09 M | Log10LC50 [15]: >−4.30 M | Log10TGI [15]: >−4.30 M | Log10GI50 [16]: −5.56 M | Log10LC50 [16]: >−4.30 M | Log10TGI [16]: >−4.30 M | Log10GI50 [17]: −4.94 M | Log10LC50 [17]: >−4.30 M | Log10TGI [17]: >−4.30 M | Log10GI50 [18]: −5.57 M | Log10LC50 [18]: >−4.30 M | Log10TGI [18]: >−4.30 M | Log10GI50 [19]: −5.03 M | Log10LC50 [19]: >−4.30 M | Log10TGI [19]: >−4.30 M | Log10GI50 [20]: −5.68 M | Log10LC50 [20]: >−4.30 M | Log10TGI [20]: >−4.30 M | Log10GI50 [21]: −5.53 M | Log10LC50 [21]: >−4.30 M | Log10TGI [21]: >−4.30 M | Log10GI50 [22]: >−4.0 M | Log10LC50 [22]: >−4.30 M | Log10TGI [22]: >−4.30 M | Log10GI50 [23]: −5.57 M | Log10LC50 [23]: >−4.30 M | Log10TGI [23]: >−4.30 M | Log10GI50 [24]: >−4.30 M | Log10LC50 [24]: >−4.30 M | Log10TGI [24]: >−4.30 M | Log10GI50 [25]: −5.85 M | Log10LC50 [25]: >−4.30 M | Log10TGI [25]: >−4.30 M | Log10GI50 [26]: −5.66 M | Log10LC50 [26]: >−4.30 M | Log10TGI [26]: >−4.30 M | Log10GI50 [27]: >−4.30 M | Log10LC50 [27]: >−4.30 M | Log10TGI [27]: >−4.30 M | Log10GI50 [28]: −5.73 M | Log10LC50 [28]: >−4.30 M | Log10TGI [28]: >−4.30 M | Log10GI50 [29]: −5.39 M | Log10LC50 [29]: >−4.30 M | Log10TGI [29]: >−4.30 M | Log10GI50 [30]: −5.36 M | Log10LC50 [30]: >−4.30 M | Log10TGI [30]: >−4.0 M | Log10GI50 [31]: −5.27 M | Log10LC50 [31]: >−4.30 M | Log10TGI [31]: >−4.30 M | Log10GI50 [32]: −6.07 M | Log10LC50 [32]: >−4.30 M | Log10TGI [32]: >−4.30 M | Log10GI50 [33]: −5.97 M | Log10LC50 [33]: >−4.30 M | Log10TGI [33]: >−4.30 M
